Patent US20090221624A1, “4-AMINOQUINOLINE COMPOUNDS FOR TREATING VIRUS-RELATED CONDITIONS” (priority 2005, published 2009)
Like-named read-outs stand apart in the source and are kept apart here.

Tests used:
SINV (SR19-F-luc cells) = assay: SINV antiviral activity, SR19-F-luc cells, Firefly luciferase; assay type: cell-based; conditions: Sindbis virus; for inhibition at 25 µM: primary screening, 25 μM final concentration, 24 hours, percent inhibition of viral replication, read-out: SINV Inh; for EC50: secondary screening, SR19-F-luc cells
DNG (D2-hRuPac cells) = assay: DNG antiviral activity, D2-hRuPac cells, Renilla luciferase; assay type: cell-based, Dengue fever virus; conditions: Dengue virus, secondary screening
YFV (YF-hRuPac cells) = assay: microbe, parasite or virus in culture; assay type: cell-based, yellow fever virus; conditions: for inhibition at 25 µM / EC50: Yellow fever virus; for inhibition at 25 µM: 24 h, read-out: YFV Inh; for EC50: read-out: YFV EC50
EBOV minigenome = assay: microbe, parasite or virus in culture; assay type: cell-based, Ebola virus; conditions: Zaire ebolavirus; for inhibition at 25 µM: 24 h, read-out: EBOV Inh; for EC50: read-out: EBOV EC50
RSV minigenome = assay: RSV minigenome-dependent β-galactosidase expression assay (RSV β-Gal); assay type: cell-based, respiratory syncytial virus; conditions: for EC50 / inhibition at 25 µM: human respiratory syncytial virus; for EC50: RSV; for inhibition at 25 µM: primary screening, 25 μM final concentration, 24 hours, percent inhibition of viral replication, read-out: RSV Inh; for RSV TI: therapeutic index CC50/EC50, RSV
WNV (WN-hRuPac cells) = assay: WNV antiviral activity, WN-hRuPac cells, Renilla luciferase; assay type: cell-based, West Nile virus; conditions: for EC50 / inhibition at 25 µM: West Nile virus; for EC50: read-out: WNV EC50; for inhibition at 25 µM: primary screening, 25 μM final concentration, 24 hours, percent inhibition of viral replication, read-out: WNV Inh; for WNV TI: therapeutic index CC50/EC50, WNV
[1] = system: HCV replicon (Clone A cells, Huh7, subgenomic hepatits C virus RNA); assay: HCV Neo screening assay (HCV replicon, NPTII ELISA); assay type: cell-based, hepatitis C virus; conditions: for inhibition at 25 µM / EC50: Hepatitis C virus, Huh-7; for inhibition at 25 µM: primary screening, 25 μM final concentration, 24 hours, percent inhibition of viral replication, read-out: HCV Inh; for EC50: Secondary Data, HCV; for HCV TI: therapeutic index CC50/EC50, HCV
[2] = Secondary Data, read-out: RSV EC50

## Cc1ccc2nc(C)cc(Nc3ccccc3)c2c1 [Compound 3]
SINV (SR19-F-luc cells)
  inhibition at 25 µM: 76.1%
  EC50: 1.29 µM
DNG (D2-hRuPac cells)
  EC50: 34.2 µM
YFV (YF-hRuPac cells)
  YFV TI: 2.84
  inhibition at 25 µM: 41.7%
  EC50: 18.4 µM
EBOV minigenome
  inhibition at 25 µM: -44.2%
  EC50: 65.2 µM
RSV minigenome; read-out: RSV EC50, Secondary Data
  EC50: 11.3 µM
RSV minigenome
  inhibition at 25 µM: 86.3%
  RSV TI: 4.63
WNV (WN-hRuPac cells)
  EC50: 29.9 µM
  inhibition at 25 µM: 38.7%
  WNV TI: 1.75
[1]
  inhibition at 25 µM: 32.1%
In vitro; DNG CC50
  CC50: 52.3 µM
In vitro; EBOV CC50
  CC50: 52.3 µM
In vitro; HCV CC50
  CC50: 32.3 µM
In vitro; RSV CC50
  CC50: 52.3 µM
In vitro; SINV CC50
  CC50: 52.3 µM
In vitro; WNV CC50
  CC50: 52.3 µM
In vitro; YFV CC50
  CC50: 52.3 µM

## CCOC(=O)c1ccc2nc(C)cc(Nc3ccc(C)cc3C)c2c1 [Compound 51]
SINV (SR19-F-luc cells)
  inhibition at 25 µM: 51.9%
  EC50: 13.7 µM
DNG (D2-hRuPac cells)
  EC50: 61 µM
YFV (YF-hRuPac cells)
  YFV TI: 3.62
  inhibition at 25 µM: 41.8%
  EC50: 15.5 µM
EBOV minigenome
  inhibition at 25 µM: 33.7%
  EC50: 52.6 µM
RSV minigenome; [2]
  EC50: 3.72 µM
RSV minigenome
  inhibition at 25 µM: 75.5%
  RSV TI: 15.07
WNV (WN-hRuPac cells); Secondary Data, WNV
  EC50: 16 µM
WNV (WN-hRuPac cells)
  inhibition at 25 µM: 49%
  WNV TI: 3.5
[1]
  EC50: 11.3 µM
  inhibition at 25 µM: 55.5%
  HCV TI: 1.89
In vitro; DNG CC50
  CC50: 56.1 µM
In vitro; EBOV CC50
  CC50: 56.1 µM
In vitro; HCV CC50
  CC50: 21.4 µM
In vitro; RSV CC50
  CC50: 56.1 µM
In vitro; SINV CC50
  CC50: 56.1 µM
In vitro; WNV CC50
  CC50: 56.1 µM
In vitro; YFV CC50
  CC50: 56.1 µM

## Cc1cc(Nc2ccc(C)c(C)c2)c2cc(Cl)ccc2n1 [Compound 47]
SINV (SR19-F-luc cells)
  inhibition at 25 µM: 61.4%
  EC50: 7.23 µM
DNG (D2-hRuPac cells)
  EC50: 39.4 µM
YFV (YF-hRuPac cells)
  YFV TI: 2.86
  inhibition at 25 µM: 77.7%
  EC50: 19.6 µM
EBOV minigenome
  inhibition at 25 µM: 49.5%
  EC50: 75 µM
RSV minigenome; [2]
  EC50: 3.96 µM
RSV minigenome
  inhibition at 25 µM: 96.4%
  RSV TI: 14.14
WNV (WN-hRuPac cells); Secondary Data, WNV
  EC50: 8.66 µM
WNV (WN-hRuPac cells)
  inhibition at 25 µM: 73%
  WNV TI: 6.47
[1]
  EC50: 11 µM
  inhibition at 25 µM: 149%
  HCV TI: 0.71
In vitro; DNG CC50
  CC50: 56 µM
In vitro; EBOV CC50
  CC50: 56 µM
In vitro; HCV CC50
  CC50: 7.84 µM
In vitro; RSV CC50
  CC50: 56 µM
In vitro; SINV CC50
  CC50: 56 µM
In vitro; WNV CC50
  CC50: 56 µM
In vitro; YFV CC50
  CC50: 56 µM

## CCOC(=O)c1cnc2ccccc2c1NCc1ccco1 [Compound 30]
SINV (SR19-F-luc cells)
  inhibition at 25 µM: -9.95%
  EC50: ≥ 75 µM
DNG (D2-hRuPac cells)
  EC50: 12 µM
YFV (YF-hRuPac cells)
  YFV TI: 10.07
  inhibition at 25 µM: 92.5%
  EC50: 5.5 µM
EBOV minigenome
  inhibition at 25 µM: 71%
  EC50: 12.6 µM
RSV minigenome; [2]
  EC50: 1.45 µM
RSV minigenome
  inhibition at 25 µM: 80.3%
  RSV TI: 38.18
WNV (WN-hRuPac cells); Secondary Data, WNV
  EC50: 4.6 µM
WNV (WN-hRuPac cells)
  inhibition at 25 µM: 93.7%
  WNV TI: 12.04
[1]
  inhibition at 25 µM: -18.1%
In vitro; DNG CC50
  CC50: 55.4 µM
In vitro; EBOV CC50
  CC50: 55.4 µM
In vitro; HCV CC50
  CC50: ≥ 75 µM
In vitro; RSV CC50
  CC50: 55.4 µM
In vitro; SINV CC50
  CC50: 55.4 µM
In vitro; WNV CC50
  CC50: 55.4 µM
In vitro; YFV CC50
  CC50: 55.4 µM

## CCOC(=O)c1cnc2c(OC)cccc2c1NC(C)c1ccccc1 (stereo not drawn) [Compound 71]
SINV (SR19-F-luc cells)
  inhibition at 25 µM: 49.1%
  EC50: 5.52 µM
DNG (D2-hRuPac cells)
  EC50: 37.2 µM
YFV (YF-hRuPac cells)
  YFV TI: 0.84
  inhibition at 25 µM: 71.2%
  EC50: 58.5 µM
EBOV minigenome
  inhibition at 25 µM: 90.1%
  EC50: 29.5 µM
RSV minigenome; [2]
  EC50: 4.47 µM
RSV minigenome
  inhibition at 25 µM: 93.3%
  RSV TI: 11.03
WNV (WN-hRuPac cells); Secondary Data, WNV
  EC50: 13.9 µM
WNV (WN-hRuPac cells)
  inhibition at 25 µM: 24.7%
  WNV TI: 3.55
[1]
  EC50: 8.95 µM
  inhibition at 25 µM: 80.1%
  HCV TI: 4.42
In vitro; DNG CC50
  CC50: 49.3 µM
In vitro; EBOV CC50
  CC50: 49.3 µM
In vitro; HCV CC50
  CC50: 39.6 µM
In vitro; RSV CC50
  CC50: 49.3 µM
In vitro; SINV CC50
  CC50: 49.3 µM
In vitro; WNV CC50
  CC50: 49.3 µM
In vitro; YFV CC50
  CC50: 49.3 µM

## CCOc1ccc2nc(C)cc(Nc3ccc(OCc4ccccc4Cl)cc3)c2c1 [Compound 42]
SINV (SR19-F-luc cells)
  inhibition at 25 µM: 99.8%
  EC50: 2.99 µM
DNG (D2-hRuPac cells)
  EC50: 5.05 µM
YFV (YF-hRuPac cells)
  YFV TI: 14.22
  inhibition at 25 µM: 100%
  EC50: 1.8 µM
EBOV minigenome
  inhibition at 25 µM: 99.5%
  EC50: 65.8 µM
RSV minigenome; [2]
  EC50: 1.48 µM
RSV minigenome
  inhibition at 25 µM: 100%
  RSV TI: 17.29
WNV (WN-hRuPac cells); Secondary Data, WNV
  EC50: 1.9 µM
WNV (WN-hRuPac cells)
  inhibition at 25 µM: 100%
  WNV TI: 13.47
[1]
  EC50: 1.3 µM
  inhibition at 25 µM: 96.5%
  HCV TI: 0.93
In vitro; DNG CC50
  CC50: 25.6 µM
In vitro; EBOV CC50
  CC50: 25.6 µM
In vitro; HCV CC50
  CC50: 1.21 µM
In vitro; RSV CC50
  CC50: 25.6 µM
In vitro; SINV CC50
  CC50: 25.6 µM
In vitro; WNV CC50
  CC50: 25.6 µM
In vitro; YFV CC50
  CC50: 25.6 µM

## CCc1ccccc1Nc1cc(C)nc2c(OC)cccc12 [Compound 24]
SINV (SR19-F-luc cells)
  inhibition at 25 µM: 64.1%
  EC50: 16.6 µM
DNG (D2-hRuPac cells)
  EC50: 27.7 µM
YFV (YF-hRuPac cells)
  YFV TI: 0.77
  inhibition at 25 µM: 67.3%
  EC50: ≥ 75 µM
EBOV minigenome
  inhibition at 25 µM: 35.3%
  EC50: 55.8 µM
RSV minigenome; [2]
  EC50: 4.5 µM
RSV minigenome
  inhibition at 25 µM: 94.7%
  RSV TI: 12.86
WNV (WN-hRuPac cells); Secondary Data, WNV
  EC50: 25.6 µM
WNV (WN-hRuPac cells)
  inhibition at 25 µM: 73.9%
  WNV TI: 2.26
[1]
  inhibition at 25 µM: 43.7%
In vitro; DNG CC50
  CC50: 57.9 µM
In vitro; EBOV CC50
  CC50: 57.9 µM
In vitro; RSV CC50
  CC50: 57.9 µM
In vitro; SINV CC50
  CC50: 57.9 µM
In vitro; WNV CC50
  CC50: 57.9 µM
In vitro; YFV CC50
  CC50: 57.9 µM

## CCOC(=O)c1cnc2c(C(F)(F)F)cccc2c1Nc1ccc(S(=O)(=O)Nc2nc(C)cc(C)n2)cc1 [Compound 72]
SINV (SR19-F-luc cells)
  inhibition at 25 µM: -4.36%
  EC50: 37.1 µM
DNG (D2-hRuPac cells)
  EC50: 12 µM
YFV (YF-hRuPac cells)
  YFV TI: 3.59
  inhibition at 25 µM: 90%
  EC50: 20.9 µM
EBOV minigenome
  inhibition at 25 µM: 86%
  EC50: 17.3 µM
RSV minigenome; [2]
  EC50: 41.7 µM
RSV minigenome
  inhibition at 25 µM: 50.3%
  RSV TI: 1.8
WNV (WN-hRuPac cells); Secondary Data, WNV
  EC50: 13.3 µM
WNV (WN-hRuPac cells)
  inhibition at 25 µM: 83.2%
  WNV TI: 5.64
[1]
  inhibition at 25 µM: -24.8%
In vitro; DNG CC50
  CC50: ≥ 75 µM
In vitro; EBOV CC50
  CC50: ≥ 75 µM
In vitro; HCV CC50
  CC50: ≥ 75 µM
In vitro; RSV CC50
  CC50: ≥ 75 µM
In vitro; SINV CC50
  CC50: ≥ 75 µM
In vitro; WNV CC50
  CC50: ≥ 75 µM
In vitro; YFV CC50
  CC50: ≥ 75 µM
